Assay results taken from patent US20030050305A1, “Thromboxane inhibitors, compositions and methods of use” (priority 2000, published 2003).

How the values were obtained:
[1] = tested on: Human corpus cavernosum tissue; assay: Relaxation of human corpus cavernosum tissue strips contracted with phenylephrine (organ chamber); settings: for Relative potency in relaxing human corpus cavernosum tissue (FIG. 1B): after treatment with 0.02 μM SQ 29548; for Relaxation response in tissue from diabetic compared to non-diabetic patients (FIG. 4A, 4B): increasing concentrations of the prostaglandin alone
Procedure: (§1) Human corpus cavernosum specimens were obtained from impotent men at the time of penile prosthesis insertion. Tissues were maintained at 4-6° C. in M-400 solution, pH 7.4 (composition per 100 ml: mannitol, 4.19 g; KH2PO4, 0.205 g; K2HPO4.3H2O, 0.97 g; KCl, 0.112 g; NaHCO3, 0.084 g) until used. Corpus cavernosum tissues were typically used between 2 and 16 hours from extraction.
(§2) Measurement of the relaxation of corpus cavemosal tissue was carried out as follows. Corpus cavernosal tissue strips (3×3×7 mm) were immersed in a 8 ml organ chamber containing physiological salt solution, maintained at 37° C. and aerated with 5% CO2/95% air, pH 7.4. The tissues were then contracted with phenylephrine (1 μM) and the relaxation response was evaluated after the cumulative addition of the compound to the organ chamber.
(§3) In experiments where the effect of the thromboxane A2 receptor antagonist, SQ 29548 , was measured, […] was added 20 minutes before the addition of phenylephrine. In experiments where the effect of the thromboxane A2 agonist, U 46619 was measured, U 46619 was added after the phenylephrine-induced contractions stabilized, and then prostaglandin PGE1 was added 10 minutes later, if required.
The data are expressed as mean i standard error of the percentage of total relaxation induced by 100 μM papaverine hydrochloride. Statistical analysis were conducted using a two-factor ANOVA statistical analysis using StatView software for Apple computers.

[2] = tested on: Human corpus cavernosum resistance arteries (helicine arteries); assay: Relaxation of human corpus cavernosum resistance arteries contracted with norepinephrine (myograph); settings: SQ 29548 0.02 μM; increasing concentrations of acetylcholine; contracted with 1 μM norepinephrine; P<0.01
Procedure: Human corpus cavernosum tissues were prepared according to Example 1. Penile small arteries, helicine arteries (lumen diameter 150-400 μ), which are the terminal branches of deep penile arteries, were dissected by carefully removing the adhering trabecular tissue. Arterial ring segments (2 mm long) were subsequently mounted on two 40 μm wires on microvascular double Halpern-Mulvany myographs (J. P. Trading, Aarhus, Denmark) for isometric tension recordings.
Measurement of the relaxation of corpus cavernosal resistant arteries was carried out as follows. […]
The segments were then exposed to 125 mM K^+ (physiological salt solution potassium salt form, by the equimolar substitution of […] in physiological salt solution) and the contraction response was measured. The arteries were contracted with 1 μM norepinephrine and relaxation responses were evaluated by cumulative additions of the acetylcholine (1 nM to 3 μ) to the organ chamber. The segments were washed with fress physiological salt solution, treated with the thromboxane inhibitor SQ 29548 (0.02 μM) and the response to acetylcholine measured again.

[3] = tested on: Human corpus cavernosum tissue; assay: Contractile response of human corpus cavernosum tissue from diabetic and non-diabetic patients to U 46619; settings: tissue from diabetic vs non-diabetic patients; P<0.01
Procedure: as §1, §2, §3
The tissues were prepared according to Example 1. […]

[4] = contracted with 1 μM phenylephrine

O=C(O)CCC/C=C\C[C@@H]1[C@H](CNNC(=O)Nc2ccccc2)[C@H]2CC[C@@H]1O2 [SQ 29548]
Effect of the thromboxane A2 receptor antagonist on the relaxation induced by PGE0 (FIG. 2) ([1]; SQ 29548 0.02 μM, added 20 minutes before phenylephrine, increasing concentrations of PGE0, P<0.01): significant relaxation of the tissue | Effect on the reduced relaxation to PGE0 of tissue from diabetic patients (FIG. 5) ([1]; addition of 0.02 μM SQ 29548, diabetic vs non-diabetic tissue): This reduction in the relaxation of the tissue was eliminated | Effect of the thromboxane A2 receptor antagonist on the relaxation induced by acetylcholine (FIG. 8) [2]: significant relaxation of the tissue

CCCCC[C@H](O)/C=C/[C@H]1[C@H](O)CC(=O)[C@@H]1CCCCCCC(=O)O [PGE1, alprostadil]
Relative potency in relaxing human corpus cavernosum tissue (FIG. 1B) [1, 4]: equipotent | Relaxation response in tissue from diabetic compared to non-diabetic patients (FIG. 4A, 4B) [1, 4]: no difference in the relaxation response

CCCCC[C@H](O)CC[C@H]1[C@H](O)CC(=O)[C@@H]1CCCCCCC(=O)O [PGE0]
Relative potency in relaxing human corpus cavernosum tissue (FIG. 1B) [1, 4]: equipotent | Response of the tissue to increasing concentrations of the prostaglandin alone (FIG. 1A) ([1]; higher concentrations of PGE0, absence of SQ 29548, contracted with 1 μM phenylephrine): significant contraction of the tissue | Relaxation response in tissue from hypertensive compared to non-hypertensive patients (FIG. 7) ([1]; increasing concentrations of PGE0, contracted with 1 μM phenylephrine, P<0.01): significant reduction in the relaxation of the tissue from hypertensive patients | Relaxation response in tissue from diabetic compared to non-diabetic patients (FIG. 4A, 4B) [1, 4]: significant reduction in the relaxation of the tissue from diabetic patients

CCCCC[C@H](O)/C=C/[C@@H]1[C@@H](C/C=C\CCCC(=O)O)[C@H]2CO[C@@H]1C2 [U 46619]
Effect of the thromboxane A2 receptor agonist on the relaxation induced by PGE1 (FIG. 3) ([1]; U 46619 0.003 μM, increasing concentrations of prostaglandin, P<0.01): significant contraction of the tissue | Contraction response induced by increasing concentrations of the thromboxane agonist (FIG. 6) [3]: significant contraction of the tissue obtained from diabetic patients
